Experimental data published in publication PMC5610175, “The Kinetochore Receptor for the Cohesin Loading Complex” (Cell, 2017).
Residues, ends and D or L forms follow the SMILES beside them.

Legend:
Scc2^1-181-Scc4 (WT) = molecular target: T1, Scc2^1-181-Scc4 (WT) (Saccharomyces cerevisiae, UniProt P40090+Q04002); test: Peptide binding to Scc2^1-181-Scc4 WT by biolayer interferometry; set-up: species or system budding yeast
T1 construct: made in house; host or cells: bacteria (E. coli is stated only for the Ctf19 complex proteins)
T1 sequence (P40090 1-624): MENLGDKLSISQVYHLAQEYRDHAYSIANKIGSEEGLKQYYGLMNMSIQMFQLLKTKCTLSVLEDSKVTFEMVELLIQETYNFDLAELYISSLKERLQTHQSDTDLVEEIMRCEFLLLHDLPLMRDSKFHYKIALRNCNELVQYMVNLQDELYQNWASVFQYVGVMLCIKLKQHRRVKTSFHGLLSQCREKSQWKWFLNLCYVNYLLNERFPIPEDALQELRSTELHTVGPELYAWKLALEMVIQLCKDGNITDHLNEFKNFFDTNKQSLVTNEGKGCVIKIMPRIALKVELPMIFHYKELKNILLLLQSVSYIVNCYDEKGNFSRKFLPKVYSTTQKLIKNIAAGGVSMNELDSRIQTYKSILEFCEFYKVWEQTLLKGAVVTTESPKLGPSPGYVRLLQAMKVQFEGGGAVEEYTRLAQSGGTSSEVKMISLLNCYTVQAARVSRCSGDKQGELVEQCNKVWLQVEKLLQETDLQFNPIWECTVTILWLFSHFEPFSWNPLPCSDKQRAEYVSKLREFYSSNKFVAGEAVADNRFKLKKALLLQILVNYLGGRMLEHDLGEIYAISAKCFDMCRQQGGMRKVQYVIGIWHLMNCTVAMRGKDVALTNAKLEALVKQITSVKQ
T1 sequence (Q04002 1-181 partner limits assumed): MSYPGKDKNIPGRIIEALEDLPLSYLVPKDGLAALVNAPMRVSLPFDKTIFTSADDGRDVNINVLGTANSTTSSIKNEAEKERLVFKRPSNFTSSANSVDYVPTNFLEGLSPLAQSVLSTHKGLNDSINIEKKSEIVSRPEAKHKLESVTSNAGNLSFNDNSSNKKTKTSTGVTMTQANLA
Method: Figure S5 Synthetic Ctf19^1–11 binds Scc2^1–181-Scc4, and Binding Requires Phosphorylation of Ctf19 Residue T4 or S5, Related to Figure 6 Experiments were carried out as in Figure 6B (error bars – +/−SD for three independent experiments, obscured by data points where not visible). m3 refers to immobilized Scc2^1-181-Scc4^m3. Ctf19 peptides and Scc2^1-181-Scc4 complexes used are listed in the table along with measured dissociation constants (Kd; SE – standard error for best-fit binding curve; single site, specific binding; Phos. – phosphorylated residues). TEXT PRINTED IN THE PICTURE: Ctf19 residues 1-11; Phos. none: Kd(±SE)(μM): n.d. (Scc2^1-181-Scc4: WT) | Ctf19 residues 1-11; Phos. pT4: Kd(±SE)(μM): 1757(6000+) (Scc2^1-181-Scc4: WT) | Ctf19 residues 1-11; Phos. pS5: Kd(±SE)(μM): 122(66) (Scc2^1-181-Scc4: WT); Kd(±SE)(μM): n.d. (Scc2^1-181-Scc4: m3) | Ctf19 residues 1-6; Phos. pT4;pS5: Kd(±SE)(μM): 22.6(3.0) (Scc2^1-181-Scc4: WT)
We used biolayer interferometry (ForteBio) to quantify the interaction between Scc2^1-181–Scc4 and synthetic peptides derived from the N-terminal region of Ctf19 (Tufts University Core Facility, Boston). For all steps, we used octet buffer (40mM HEPES, pH 7.5; 200mM NaCl; 1mM DTT) and low-volume 96-well opaque black plates. […] This step was allowed to reach saturation before a final incubation in octet buffer.
To derive binding curves, we first applied a linear correction so that all association steps began at zero response units. We then performed a linear drift correction by subtracting the signal for Scc2^1-181-Scc4 incubated in buffer alone during the association step (no peptide, linear subtraction for each time point, independent control for each experiment). We then applied a loading factor to correct for the Scc2^1-181-Scc4 immobilization efficiency for each well. From these normalized association curves, we extracted maximum responses for each well by averaging the signal across the final ten seconds of the association step. We performed these operations for three independent experiments, performed with new tips and samples, for each data point. […] Data points represent mean maximum responses, and error bars show the standard deviation for the three experiments. Fits were determined using GraphPad Prism software assuming a single specific binding site.

[1] = system: centromeric Scc2 in ctf3Δ cells expressing DBF4-FRB and CTF19-FKBP12; test: Artificial tethering of Dbf4-FRB to Ctf19-FKBP12: centromeric Scc2 localization by ChIP-qPCR; assay type: cell-based, budding yeast; settings: rapamycin 1 μM, 2.5 hr, nocodazole and benomyl, versus DMSO, at least four independent experiments
Method: (F) Scc2 localization was assessed by ChIP-qPCR in the presence or absence of DDK tethering, CTF3, and Ctf19 phosphorylation sites. Wild-type (AM21613), ctf19-9A (AM21681), ctf19-2A (AM22360), ctf3Δ (AM21614), ctf19-9A ctf3Δ (AM21617), ctf19-2A ctf3Δ (AM22672), and control (AM21486) strains, all expressing DBF4-FRB and CTF19-FKBP12, were arrested in G1 for 3 hr before release into medium containing nocodazole, benomyl, and either DMSO (no DDK tethering) or rapamycin (DDK tethering; 1 μM) for 2.5 hr. Mean values of at least four independent experiments are shown. Error bars indicate SE (^∗p < 0.05; ^∗∗p < 0.01; Student’s t test, unpaired, two-tails; ns, not significant).
To artificially tether Dbf4 to the kinetochores, Dbf4 was tagged with FRB (pFA6a-FRB-KanMX6), and CTF19, ctf19-9A and ctf19-2A were tagged with FKBP12-TRP1 (pFA6a-FKBP12-TRP1). Proteins were tagged at their C-termini by one-step cassette integrations at their original gene loci as previously described ([Haruki et al., 2008]). Yeast strains for these experiments also carried TOR1-1, which confers rapamycin resistance, and the fpr1Δ mutation. Tethering of FRB and FKBP12 fusion proteins was induced by addition of rapamycin to the medium at a final concentration of 1 μM. For control cultures, an equal volume of DMSO was added instead. […]

[2] = system: analog-sensitive DDK (Cdc7-AS3/Dbf4); test: DDK activity assay: phosphate transfer to Ctf19-Mcm21 by analog-sensitive DDK; assay type: biochemical, S. cerevisiae; settings: Ctf19-Mcm21 substrate, γ-^32[P]-ATP, one hour at 30°C, autoradiography, similar to those that inhibit kinase activity in vivo (Wan et al., 2006)
Method: Figure S2 Determinants of Ctf19 Phosphorylation by DDK, Related to Figure 1 (A) Products of phosphorylation reactions containing Ctf19-Mcm21, analog-sensitive DDK, γ-^32[P]-ATP, and increasing concentrations of PP1. (B) Reactions carried out as in panel A, except wild-type DDK was used as in Figure 1B. After phosphorylation, reactions were subjected to a brief cleavage reaction by incubation with trypsin (top, autoradiography). Identical cleavage reactions were carried out in the absence of DDK and ATP to identify Ctf19-Mcm21 cleavage fragments (bottom; Coomassie). A schematic of the cleavage reaction is shown below (PDB: 3ZXU). (C) Phosphorylation of mutant Ctf19-Mcm21 complexes by purified DDK. Phosphorylation reactions were carried out as in panel A except that PP1 was not included. Substrates are indicated below. […] Reactions were carried out as in (B) in the presence or absence of an equimolar amount of purified Ctf3 complex.
An S. cerevisiae strain in which Cdc7 has been tagged at its C terminus with a TAP tag (calmodulin binding peptide – TEV site – tandem Protein A tags) was grown to an optical density (A600) of 2 in 12 l of yeast extract peptone dextrose (YPD) medium. […]
For phosphorylation reactions, purified DDK was concentrated to approximately 20uM as determined by absorbance at 280nm. […] Reaction products were analyzed by SDS-PAGE and autoradiography.

MDFpTSDTTNSH [Ctf19 residues 1-11; Phos. pT4, synthetic Ctf19^1–11 peptide phosphorylated at T4]
binding to Scc2^1–181-Scc4 in vitro (in words) (Scc2^1-181-Scc4 (WT); Scc2^1–181-Scc4 WT, pH 7.5): detectable binding

CO[C@H]1C[C@@H]2CC[C@@H](C)[C@@](O)(O2)C(=O)C(=O)N2CCCC[C@H]2C(=O)O[C@H]([C@H](C)C[C@@H]2CC[C@@H](O)[C@H](OC)C2)CC(=O)[C@H](C)/C=C(\C)[C@@H](O)[C@@H](OC)C(=O)[C@H](C)C[C@H](C)/C=C/C=C/C=C/1C [rapamycin]
effect on Ctf3 requirement for centromeric Scc2 localization (in words) [1]: bypassed the Ctf3 requirement

CSCC[C@H](N)C(=O)N[C@@H](CC(=O)O)C(=O)N[C@@H](Cc1ccccc1)C(=O)N[C@H](C(=O)N[C@@H](COP(=O)(O)O)C(=O)N[C@@H](CC(=O)O)C(=O)O)[C@@H](C)OP(=O)(O)O [Ctf19 residues 1-6; Phos. pT4;pS5] (HELM PEPTIDE1{M.D.F.[C[C@@H](OP(=O)(O)O)[C@H](N[*:1])C(=O)[*:2]].[O=C([C@H](COP(=O)(O)O)N[*:1])[*:2]].D}$$$$V2.0)
Kd (Scc2^1-181-Scc4 (WT); immobilized Scc2^1-181-Scc4 WT on NiNTA tips, 40mM HEPES, pH 7.5, 200mM NaCl, 1mM DTT, three independent experiments, SE for best-fit binding curve, single site, specific binding): 22.6 µM

CC(C)(C)n1nc(-c2cccc3ccccc23)c2c(N)ncnc21 [PP1]
concentration at which phosphate transfer to Ctf19 was inhibited [2]: ~25 µM
